Source: paper PMC9579011, “Coprinopsis cinerea dioxygenase is an oxygenase forming 10(S)-hydroperoxide of linoleic acid, essential for mushroom alcohol, 1-octen-3-ol, synthesis” (The Journal of Biological Chemistry, 2022)

Key:
CcDOX2 = molecular target: T1, CcDOX2 (Coprinopsis cinerea, UniProt A8NN01); assay: LC-MS/MS of products after triphenylphosphine reduction; format: biochemical; conditions: immunopurified EGFP fusion; 8-hydroperoxide product (tentative)
T1 construct: gene CC1G_09914; full length, 1118 aa, C-terminal EGFP fusion, expressed in BmN4 (Bombyx mori) cells, immunopurified with anti-GFP antibody
T1 sequence (A8NN01 1-1118): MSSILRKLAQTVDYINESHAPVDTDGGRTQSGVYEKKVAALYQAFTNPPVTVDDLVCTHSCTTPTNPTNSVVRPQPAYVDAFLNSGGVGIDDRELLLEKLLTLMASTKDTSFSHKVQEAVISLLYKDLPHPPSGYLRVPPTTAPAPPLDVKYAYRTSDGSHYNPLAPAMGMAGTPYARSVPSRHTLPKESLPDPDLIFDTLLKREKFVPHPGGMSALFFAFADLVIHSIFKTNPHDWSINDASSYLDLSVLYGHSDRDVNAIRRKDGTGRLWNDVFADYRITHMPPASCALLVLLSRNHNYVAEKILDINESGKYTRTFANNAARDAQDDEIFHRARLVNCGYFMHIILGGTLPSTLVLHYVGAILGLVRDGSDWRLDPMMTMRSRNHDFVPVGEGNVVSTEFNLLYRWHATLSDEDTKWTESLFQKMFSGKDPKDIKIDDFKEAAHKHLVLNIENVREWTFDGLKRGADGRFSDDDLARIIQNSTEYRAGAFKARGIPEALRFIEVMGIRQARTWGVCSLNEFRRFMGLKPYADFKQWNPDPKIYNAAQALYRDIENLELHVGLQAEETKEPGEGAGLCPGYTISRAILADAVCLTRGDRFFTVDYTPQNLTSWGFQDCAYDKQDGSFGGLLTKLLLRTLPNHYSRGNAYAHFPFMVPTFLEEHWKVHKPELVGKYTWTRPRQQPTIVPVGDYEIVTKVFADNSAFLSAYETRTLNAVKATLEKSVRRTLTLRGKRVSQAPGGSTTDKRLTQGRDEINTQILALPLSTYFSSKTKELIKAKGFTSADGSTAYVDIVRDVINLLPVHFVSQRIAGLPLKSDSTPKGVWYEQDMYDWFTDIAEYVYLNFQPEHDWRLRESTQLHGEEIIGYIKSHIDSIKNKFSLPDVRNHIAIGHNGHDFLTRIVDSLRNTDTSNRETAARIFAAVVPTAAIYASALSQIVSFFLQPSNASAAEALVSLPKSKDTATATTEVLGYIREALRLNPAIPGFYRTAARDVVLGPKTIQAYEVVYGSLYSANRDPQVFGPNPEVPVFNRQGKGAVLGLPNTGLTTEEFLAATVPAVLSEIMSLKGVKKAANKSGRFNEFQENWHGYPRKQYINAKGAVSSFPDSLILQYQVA

CcDOX1 = molecular target: T2, CcDOX1 (Coprinopsis cinerea, UniProt A8N8W9); assay: LC-MS/MS product peak area, Hill fit of [S]-v plot; format: biochemical; conditions: Hill coefficient n = 1.9 ± 0.27; 10-500 μM substrate, 30 min on ice; bead-bound immunopurified EGFP fusion; lysis buffer pH 7.4
T2 construct: gene CC1G_00844; full length, 1066 aa, C-terminal EGFP fusion, expressed in BmN4 (Bombyx mori) cells, immunopurified on anti-GFP beads
T2 sequence (A8N8W9 1-1066): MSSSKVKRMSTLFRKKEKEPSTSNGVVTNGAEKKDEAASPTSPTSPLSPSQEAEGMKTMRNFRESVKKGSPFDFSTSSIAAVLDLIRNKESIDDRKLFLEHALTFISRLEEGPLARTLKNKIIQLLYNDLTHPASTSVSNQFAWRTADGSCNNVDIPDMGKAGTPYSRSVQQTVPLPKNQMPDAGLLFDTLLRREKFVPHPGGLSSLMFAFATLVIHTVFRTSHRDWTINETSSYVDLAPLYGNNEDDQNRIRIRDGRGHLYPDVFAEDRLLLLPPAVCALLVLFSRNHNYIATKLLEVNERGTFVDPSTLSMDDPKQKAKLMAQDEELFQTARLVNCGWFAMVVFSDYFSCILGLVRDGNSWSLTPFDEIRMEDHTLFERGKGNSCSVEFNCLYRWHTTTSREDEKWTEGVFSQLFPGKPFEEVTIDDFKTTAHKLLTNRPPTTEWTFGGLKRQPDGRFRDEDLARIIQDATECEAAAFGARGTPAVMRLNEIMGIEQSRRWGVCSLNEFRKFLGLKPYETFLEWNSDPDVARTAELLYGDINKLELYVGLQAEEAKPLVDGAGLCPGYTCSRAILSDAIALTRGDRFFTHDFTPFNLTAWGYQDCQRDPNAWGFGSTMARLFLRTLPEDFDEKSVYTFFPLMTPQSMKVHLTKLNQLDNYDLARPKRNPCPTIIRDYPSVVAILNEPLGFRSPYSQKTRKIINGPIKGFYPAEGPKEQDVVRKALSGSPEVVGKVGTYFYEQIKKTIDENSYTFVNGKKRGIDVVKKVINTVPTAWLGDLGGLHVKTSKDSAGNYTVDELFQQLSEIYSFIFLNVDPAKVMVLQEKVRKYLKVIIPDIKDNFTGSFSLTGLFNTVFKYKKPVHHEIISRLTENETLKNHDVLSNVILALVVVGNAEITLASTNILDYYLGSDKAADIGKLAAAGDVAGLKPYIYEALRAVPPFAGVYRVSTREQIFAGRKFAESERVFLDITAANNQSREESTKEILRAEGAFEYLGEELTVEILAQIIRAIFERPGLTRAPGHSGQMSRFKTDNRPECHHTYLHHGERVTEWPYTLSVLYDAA

KA (CcDOX1): 78 ± 9.74 µM
Structure (SMILES): CCCCC/C=C\C/C=C\CCCCCCCC(=O)O [linoleic acid]
LC-MS/MS of products after triphenylphosphine reduction (CcDOX2): Linoleic acid was added to the purified recombinant CcDOX1 and CcDOX2
